From the supplement of paper PMC10307832

What was measured:
Assay in all cases: relative viability (nuclei count vs DMSO), 5 days (fraction); higher = more cells survive
IDH-C35 + Alpelisib = compound: Cc1ccccc1C(C(=O)NC1CCCCC1)N(C(=O)Cn1ccnc1C)c1cccc(F)c1 [IDH-C35] + Cc1nc(NC(=O)N2CCC[C@H]2C(N)=O)sc1-c1ccnc(C(C)(C)C(F)(F)F)c1 [Alpelisib] (partner 2 µM)
Outline: (§1)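 Relative viability is defined as nuclei in treated wells over nuclei in vehicle wells. Duplicate plates were run and medians reported. Lung cancer cell lines in 1536-well plates were dosed by pin tool one day after seeding, with one drug or with a fixed anchor-drug dose plus five library-drug doses (not always all listed) in √10 steps, and nuclei were counted after 5 days.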

IDH-C35 + Olaparib = compound: Cc1ccccc1C(C(=O)NC1CCCCC1)N(C(=O)Cn1ccnc1C)c1cccc(F)c1 [IDH-C35] + O=C(c1cc(Cc2n[nH]c(=O)c3ccccc23)ccc1F)N1CCN(C(=O)C2CC2)CC1 [Olaparib] (partner 8 µM)
Outline: as §1

[1] = compound: CC1=C(C(=NN1)C)CC2=C(C3=C(S2)N(C(=O)N(C3=O)C)CC(C)C)C(=O)N4C[C@@H](CO4)O + CS(=O)(=O)CCNCc1ccc(-c2ccc3ncnc(Nc4ccc(OCc5cccc(F)c5)c(Cl)c4)c3c2)o1 [Lapatinib] (partner 2 µM)
Outline: as §1

IDH-C35 + Tozasertib = compound: Cc1ccccc1C(C(=O)NC1CCCCC1)N(C(=O)Cn1ccnc1C)c1cccc(F)c1 [IDH-C35] + Cc1cc(Nc2cc(N3CCN(C)CC3)nc(Sc3ccc(NC(=O)C4CC4)cc3)n2)n[nH]1 [Tozasertib] (partner 0.1 µM)
Outline: as §1

Cell Line	relative viability (IDH-C35 + Alpelisib; first compound 0.08 µM)	relative viability (IDH-C35 + Alpelisib; first compound 0.253 µM)	relative viability (IDH-C35 + Alpelisib; first compound 0.8 µM)	relative viability (IDH-C35 + Alpelisib; first compound 2.53 µM)	relative viability (IDH-C35 + Alpelisib; first compound 8 µM)	relative viability (IDH-C35 + Olaparib; first compound 0.08 µM)	relative viability (IDH-C35 + Olaparib; first compound 0.253 µM)	relative viability (IDH-C35 + Olaparib; first compound 0.8 µM)	relative viability (IDH-C35 + Olaparib; first compound 2.53 µM)	relative viability (IDH-C35 + Olaparib; first compound 8 µM)	relative viability ([1]; first compound 0.0025 µM)	relative viability ([1]; first compound 0.007906 µM)	relative viability ([1]; first compound 0.025 µM)	relative viability ([1]; first compound 0.07906 µM)	relative viability ([1]; first compound 0.25 µM)	relative viability (IDH-C35 + Tozasertib; first compound 0.08 µM)	relative viability (IDH-C35 + Tozasertib; first compound 0.253 µM)	relative viability (IDH-C35 + Tozasertib; first compound 0.8 µM)	relative viability (IDH-C35 + Tozasertib; first compound 2.53 µM)	relative viability (IDH-C35 + Tozasertib; first compound 8 µM)
H3255	0.681	0.822	0.633	0.774	0.637	0.554	0.576	0.579	0.63	0.553	0.24	0.244	0.25	0.241	0.223	0.59	0.6	0.522	0.511	0.703
HARA	0.727	0.8	0.874	0.78	0.729	0.835	1.03	0.742	0.725	0.845	0.664	0.81	0.637	0.671	0.696	0.0971	0.135	0.104	–	0.133
HCC-15	0.904	0.844	0.822	0.854	0.852	0.712	0.733	0.724	–	0.667	0.941	0.814	0.786	0.82	0.899	0.493	0.463	0.342	–	0.323
HCC-44	0.821	0.764	0.737	0.827	0.763	0.987	0.927	0.988	0.964	0.923	1.01	1.1	0.988	0.908	1.11	1.06	0.906	1	0.903	0.96
HCC-78	0.361	0.323	0.322	0.397	0.331	0.91	0.78	0.883	0.932	0.741	0.92	0.691	0.738	0.577	0.733	0.403	0.363	0.388	0.383	0.254
HCC-366	0.476	0.311	0.387	0.403	0.352	0.353	0.361	0.345	0.36	0.326	1.02	1.03	1.06	1.07	1.15	0.109	0.128	0.179	–	0.0826
IA-LM	0.998	0.9	0.793	0.761	0.584	0.872	0.88	0.731	0.744	0.963	1.04	0.863	0.924	0.816	1.05	–	–	–	–	–
LCLC-103H	1.05	0.979	0.918	0.963	1.09	0.788	0.71	0.807	0.777	0.711	–	–	–	–	–	0.554	0.435	0.47	0.499	0.38
NCI-H441	0.649	–	0.688	0.684	0.754	0.627	0.638	0.595	0.468	0.557	–	–	–	–	–	0.597	0.561	0.623	0.624	0.583
NCI-H522	–	–	–	–	–	0.594	0.687	0.657	0.59	0.746	–	–	–	–	–	0.545	0.543	0.589	0.581	0.611
NCI-H1299	1.06	1.02	1.09	1.05	1.04	1.04	0.977	0.979	1.04	0.998	0.953	0.992	0.93	0.935	0.986	–	–	–	–	–
NCI-H1563	0.947	0.877	1.01	0.84	0.925	–	–	–	–	–	0.944	1.01	0.999	1.04	0.831	–	–	–	–	–
NCI-H1623	–	–	–	–	–	–	–	–	–	–	–	–	–	–	–	0.414	0.423	0.464	0.452	0.431
NCI-H1648	–	–	–	–	–	–	0.765	0.801	0.681	0.782	–	–	–	–	–	0.567	0.499	0.511	0.525	0.541
NCI-H1650	–	–	–	–	–	0.783	0.65	0.769	0.588	0.757	0.954	1.12	0.875	0.881	0.926	0.407	0.393	0.378	0.444	0.355
NCI-H1703	0.379	0.372	0.405	0.343	0.309	0.293	0.47	0.441	0.383	0.434	1.14	1.37	1.02	1.14	1.08	–	–	–	–	–
NCI-H1792	0.655	0.727	0.669	0.741	0.827	0.508	0.444	0.417	0.474	0.362	0.963	0.931	0.834	0.746	0.824	–	–	–	–	–
NCI-H2342	–	–	–	–	–	0.435	0.49	0.41	0.467	0.377	–	–	–	–	–	0.482	0.54	0.483	0.494	0.442
SW 900	–	–	–	–	–	0.915	0.819	–	1.02	0.83	–	–	–	–	–	0.51	0.645	0.585	0.615	0.508
